SMILES strings stand for the structures.

For the assay, the system named is human sweet taste receptor (hT1R2/hT1R3) coupled to Gα16gust25. The assay is described as follows: FLIPR calcium mobilization assay, R2/R3 Gα16gust25 U2OS cells. The conditions noted are these: for ΔlogR FLIPR Mean: FLIPR-Gα16gust25, operational model, logR minus sucralose logR; for ΔΔlogR Mean: ΔlogR FLIPR-Gα16gust25 minus ΔlogR DMR. The class given is cell-based. The method, then: The R2/R3 U2OS clone produced above was subsequently transfected with a linearized plasmid encoding Gα16gust25 in pcDNA3-neo. Transfected cells surviving triple selection in growth medium containing 0.5 μg/ml Puromycin (for hT1R2 expression), 100 μg/ml zeocin (for hT1R3 expression) and 500 μg/ml geneticin (Gα16gust25 expression) were diluted at various densities to obtain isolated colonies. Individual colonies were expanded, and the presence of functional human sweet receptor and G protein was evaluated in a FLIPR assay using sucralose as the agonist. Selected colonies were further evaluated with a larger panel of agonists. One clone, called L1F2, was used for this study.
Cells were gently mixed with the virus at a multiplicity of infection (MOI) of 5. Using a multidrop, 70 μl per well of the cell and virus mixture was dispensed in a 384-well clear bottom plate (Fisher). After 24 h of incubation in a humidified 37°C tissue culture incubator, trichostatin A was added to a final concentration of 0.3 μM and the cells were incubated for another 18–24 h at 34°C. On the day of the experiment, cells were loaded with 4 μM of the calcium indicator Fluo-4 AM (Invitrogen) in D-PBS for 1 h at room temperature. After washing the cells with D-PBS using a cell washer (BioTek) and a 30-minute rest time, the cell plate and the compound plate were transferred into the FLIPR-Tetra (Molecular Devices). Imaging and data analysis was performed as described ([Servant et al., 2010]). Alternatively, R2/R3 Gα16gust25 U2OS cells were re-suspended at a final density of 2.25 × 10^5 viable cells per mL and the mixture was dispensed in a 384-well clear bottom plate (Fisher) at 80 μl per well. Loading and the FLIPR assay were run as described above. When indicated, data for agonist dose-responses were normalized to data obtained with a maximum concentration of sucralose (1 mM) and then fitted and plotted using GraphPad Prism (San Diego, CA) and non-linear regression analysis.
To visualize and assess bias between the two different cell-based assays, we used bias plotting as described ([Drake et al., 2008]; [Peters and Scott, 2009]; [Gregory et al., 2010]; [Thomsen et al., 2012]; [Kenakin, 2015]; [Montero-Melendez et al., 2015]). To calculate relative potency bias between the two assays, we calculated a ratio of the negative logarithm of the EC50 (in M) of each agonist to that of sucralose (a sucralose dose-response was performed as a control on the same day) as described: pEC50 compound X–pEC50 sucralose. This value, that we termed pEC50Ratio (sucralose) or pEC50R (sucralose), was calculated with EC50 values obtained in the two assay systems. This transformation also allowed determination of an average and a standard error for the pEC50R (sucralose). The two sets of data (DMR and FLIPR data) were then analyzed with an un-paired t-test (α = 0.05). To calculate relative efficacy bias between the two assays, we captured the top asymptote value from each activity-normalized dose-response curve, as provided by the curve fit, calculated an average and a standard deviation (sd) for each agonist and then analyzed the data pairs with an un-paired t-test (α = 0.05). Assay bias was also estimated using an operational model ([Kenakin et al., 2012]; [Nagi and Pineyro, 2016]). The following steps were followed: 1) Using the PRISM software, we re-analyzed each ligand’s dose-response data obtained in each assay with non-linear regression and the users-defined equation “New Operational Model with TauKa ratios” and retrieved logR values from the fits.
(In general: Calcium assays in cells follow changes in intracellular calcium, usually with a dye or a luminescent sensor.)

As to `COC(=O)[C@H](Cc1ccccc1)NC(=O)[C@H](CC(=O)O)NCCC(C)(C)C` [Neotame], the “ΔlogR FLIPR Mean” value is on record as 1.52 and the “ΔΔlogR Mean” value is 0.36.
Taken in the same sequence, the figures for `CC(C)Oc1ccc(NC(=S)NCc2ccc[nH]2)cc1` [S819] were 2.40 and −0.13.
For `CC(C)Oc1ccc(NC(=S)NCc2cccs2)cc1` [S5227], in that order: 1.73 and −0.12.

The values above are taken from article PMC8893300, “A Dynamic Mass Redistribution Assay for the Human Sweet Taste Receptor Uncovers G-Protein Dependent Biased Ligands” (Frontiers in Pharmacology, 2022).
